{"source": "patent US20240358692A1", "about": "“TREATMENT OF SCLERODERMA” (Aisa Pharma, Inc., priority 2023, published 2024)", "system": "participants with SSc-RP", "experiment": "Average severity of weekly RP attacks (VAS 0-10)", "assay_type": "in vivo, human", "conditions": "Tadalafil 5 mg; for Average Severity of Weekly Symptomatic RP Attacks, Change from Baseline, Mean / Average Severity of Weekly Symptomatic RP Attacks, Change from Baseline, Median / Average Severity of Weekly Symptomatic RP Attacks, Percent Change from Baseline, Mean / Average Severity of Weekly Symptomatic RP Attacks, Percent Change from Baseline, Median: 2nd Baseline RCS subgroup, ITT Part A, last 7 days of dosing period", "from_the_text": "The absolute change in average severity of weekly RP attacks (VAS 0-10 cm scale) from baseline to the end of each Dosing Period was and will be a secondary outcome variable. The sponsor-developed participant-informed diary will be used to record data. Average severity of weekly RP attacks is defined as the total severity scores of RP attacks divided by total number of RP attacks within the last 7 days of each dosing period. Total severity scores of RP attacks during the last 7 days of screening period divided by the total number of RP attacks will be used as baseline for the analysis of all periods. The variable will be calculated similar to frequency data as before.", "key": {"[1]": {"conditions": "all attacks, by Baseline RCS: second subgroup of Table C-7, ITT Part A"}}, "data": [{"smiles": "CN1CC(=O)N2[C@H](c3ccc4c(c3)OCO4)c3[nH]c4ccccc4c3C[C@@H]2C1=O", "note": "[Tadalafil]", "values": [{"measurement": "Average Severity of Weekly Symptomatic RP Attacks, Change from Baseline, Mean", "value": "−0.60"}, {"measurement": "Average Severity of Weekly Symptomatic RP Attacks, Change from Baseline, Median", "value": "−0.60"}, {"measurement": "Average Severity of Weekly Symptomatic RP Attacks, Percent Change from Baseline, Mean", "value": "−10.43", "unit": "%"}, {"measurement": "Average Severity of Weekly Symptomatic RP Attacks, Percent Change from Baseline, Median", "value": "−10.43", "unit": "%"}, {"measurement": "Average Severity of Weekly Symptomatic RP Attacks, Change from Baseline, Mean", "setting": "Excluding Outliers", "value": "−1.32"}, {"measurement": "Average Severity of Weekly Symptomatic RP Attacks, Change from Baseline, Median", "setting": "Excluding Outliers", "value": "−1.32"}, {"measurement": "Average Severity of Weekly Symptomatic RP Attacks, Percent Change from Baseline, Mean", "setting": "Excluding Outliers", "value": "−22.01", "unit": "%"}, {"measurement": "Average Severity of Weekly Symptomatic RP Attacks, Percent Change from Baseline, Median", "setting": "Excluding Outliers", "value": "−22.01", "unit": "%"}, {"measurement": "Average Severity (0-10) of weekly RP attacks, Mean", "setting": "[1]", "value": 7.02}, {"measurement": "Average Severity (0-10) of weekly RP attacks, Median", "setting": "[1]", "value": 7.02}, {"measurement": "Average severity of weekly RP attacks, Change from Baseline, Mean", "setting": "[1]", "value": "−0.47"}, {"measurement": "Average severity of weekly RP attacks, Change from Baseline, Median", "setting": "[1]", "value": "−0.47"}, {"measurement": "Average severity of weekly RP attacks, Percent Change from Baseline, Mean", "setting": "[1]", "value": "−8.97", "unit": "%"}, {"measurement": "Average severity of weekly RP attacks, Percent Change from Baseline, Median", "setting": "[1]", "value": "−8.97", "unit": "%"}]}]}
